Data taken from publication PMC4314633, “Homo-β-amino acid containing MBP(85–99) analogs alleviate experimental autoimmune encephalomyelitis” (Scientific Reports, 2015).
Where a SMILES comes first, the peptide text is derived from it. [ ]: non-standard residue; d: D form. ξ: configuration not given here. ξβ3hE = NC(CCC(=O)O)CC(=O)O; ξβ3hK = NCCCCC(N)CC(=O)O; ξβ3hA = CC(N)CC(=O)O

Key:
α-chymotrypsin = α-chymotrypsin (Bos taurus, UniProt P00766); experiment: Proteolysis assay with chymotrypsin, RP-HPLC; type: in vitro ADME; conditions: chymotrypsin 0.1 μg/ml, peptide 1 mg/ml, PBS with 0.01% sodium azide, 37°C
Experimental: Aliquots were drawn at various time points and analyzed by high pressure liquid chromatography (HPLC, Shimadzu). Degradation mixtures were resolved on a C18 column (Phenomenix) using acetonitrile/water with 0.1% trifluroacetic acid (TFA) as a solvent system at a flow rate of 0.4 ml/minute. Analogs un-cleaved in the reaction mixture were quantified in terms of percent peak area. […] Aliquots were drawn and analyzed on a polyacrylamide gel (15%).

[1] = test system: experimental autoimmune encephalomyelitis in SJL/J mice; experiment: EAE treatment setup in SJL/J mice; type: in vivo, mouse; conditions: treatment: 100 μg subcutaneously daily for a week
Experimental: Animals were perfused intra-cardially with ice cold PBS and 4% paraformaldehyde (PFA) sequentially under deep anesthesia. Thereafter intact spinal cord tissue was dissected out, equilibrated with 30% sucrose and embedded in tissue freezing media (Polyfreez, Polysciences). Subsequently, transverse sections (15 μM thick) were cut through lumbar region in a cryotome (Thermo) and collected in storage buffer (30% glycerol and ethylene glycol in PBS). Sections were retrieved from storage buffer, transferred into citrate buffer (10 mM, pH 6.0) and incubated at 65°C for 30 minutes for antigen retrieval. After 30 minute incubation period, sections were equilibrated with PBS and blocked using 3% bovine serum albumin and 1% normal serum for 2 hours at room temperature. […]

[2] = test system: experimental autoimmune encephalomyelitis in SJL/J mice; experiment: EAE prevention (pre-treatment) setup in SJL/J mice; type: in vivo, mouse; conditions: prevention: 400 μg in IFA a week prior to immunization with MBP(85–99)
Experimental: EAE was induced and assessed as described previously. SJL/J (female; 6–8 week old) were injected subcutaneously with 100 μg of MBP(85–99) (two immunizations spaced a week apart) emulsified in complete Freund's adjuvant (CFA). Immunized mice were also given an intra-peritoneal injection of pertussis toxin (200 ng) on day 0 and 2. Severity of clinical disability was scored on a scale of 0 to 5, where, 0, no detectable signs of EAE; 1, complete tail paralysis; 2, wobbly gait; 3, complete hind limb paralysis; 4, complete hind and fore limb paralysis or moribund; 5, dead.

RRMS = conditions: cited from earlier work
Source text: However, therapeutic potencies of such antigen-specific modalities has always been moderate due to their peptidic nature e.g. in the case of GA it is only 20–30 percent. Expectedly, it is their minimal stability in proteolytic milieu and thus inefficient presentation on antigen presenting cells (APCs) which perhaps gets translated into their reduced efficacy.

## CC(CC(=O)O)NC(=O)CC(C)NC(=O)CC(C)NC(=O)CC(C)NC(=O)CC(CCCCN)NC(=O)[C@H](Cc1ccc(O)cc1)NC(=O)[C@H](C)NC(=O)[C@H](CCC(=O)O)NC(=O)[C@@H](NC(=O)[C@H](CCCCN)NC(=O)[C@@H]1CCCN1C(=O)CC(CCCCN)NC(=O)CC(N)CCC(=O)O)C(C)C (stereo partly drawn) [S18] (H-[ξβ3hE][ξβ3hK]PKVEAY[ξβ3hK][ξβ3hA][ξβ3hA][ξβ3hA][ξβ3hA]-OH)
α-chymotrypsin; RP-HPLC
  time up to which detectable in the reaction mixture: ≤ 2 days
α-chymotrypsin; after 12 hours, RP-HPLC percent peak area, n ≥ 3
  percent remaining intact in reaction mixture: > 90%

## glatiramer acetate [GA]
[1]
  duration of therapeutic effect post-treatment: ~ 1.7 weeks
  reduction of disease severity (cumulative disability score): 30–35%
[2]
  reduction of disease severity (cumulative disability score): 40–50%
RRMS
  therapeutic potency: 20–30%

## CC(C)[C@H](NC(=O)[C@H](CCCCN)NC(=O)[C@@H]1CCCN1C(=O)[C@H](CCCCN)NC(=O)[C@@H](N)CCC(=O)O)C(=O)N[C@@H](CCC(=O)O)C(=O)N[C@@H](C)C(=O)N[C@@H](Cc1ccc(O)cc1)C(=O)N[C@@H](CCCCN)C(=O)N[C@@H](C)C(=O)N[C@@H](C)C(=O)N[C@@H](C)C(=O)N[C@@H](C)C(=O)N1CCC[C@H]1C(=O)N[C@@H](C)C(=O)O [J5]
α-chymotrypsin; in 6 hours, RP-HPLC percent peak area
  percent hydrolyzed: > 50%
